Results taken from patent US20030032003A1, “IN VIVO SELECTION” (priority 2000, published 2003).

Experiments:
wildtype mice = assay: Biochemical analysis of mouse serum after G418; assay type: in vivo; details: 335 mg/kg single i.p., serum 48 hrs after treatment
Method: (§1) BUN and CRE levels are diagnostic markers of kidney damage. […] In these transgenic animals G418 at the highest dose (1140 mg/kg) caused immediate toxicity resulting in death due to breath failure within 10 minutes after injection.

neo^R mice = assay: Biochemical analysis of mouse serum after G418; assay type: in vivo; details: 335 mg/kg single i.p., serum 48 hrs after treatment
Method: as §1

Neo −/− mice = assay: Acute toxicity of G418; assay type: in vivo, mouse; details: 10 days
Method: (§2) As in Example 1, applicants characterized the tissue specific expression of neoR mRNA and furthermore, investigated acute tissue specific toxicities of G418 in neo^R+/+ mice. The neoR mRNA reached highest levels in testis, intermediate in brain, kidney and liver. Low levels were detected in heart skeletal muscle and lungs and almost undetectable low levels in spleen. For acute toxicity determination the animals were treated with a single dose i.p. at concentrations starting at 47 mg/kg and increased thereafter by approximately 50% for each consecutive dose. The neoR expression in transgenic animals caused 10-fold increase of the approximate lethal dose of G418 (Table 4).

neo +/+ transgenic mice = assay: Acute toxicity of G418; assay type: in vivo, mouse; details: for survival / body weight, percentage of the body weight before the experiment: Neo +/+, 10 days
Method: as §2

**Q.** CN[C@@H]1[C@@H](O)[C@@H](O[C@@H]2[C@@H](O)[C@H](O[C@H]3O[C@H]([C@@H](C)O)[C@@H](O)[C@H](O)[C@H]3N)[C@@H](N)C[C@H]2N)OC[C@]1(C)O [G418] was tested. Which ALT (wildtype mice) did it give?
**A.** Its ALT is 102.0 ± 9.4 u/l.

**Q.** And the BUN (wildtype mice)?
**A.** Its BUN is 96.0 ± 14.2 mg/dL.

**Q.** What about the CRE (wildtype mice) of the same compound?
**A.** Its CRE is 0.67 ± 0.05 mg/dL.

**Q.** What about the ALT (neo^R mice) of the same compound?
**A.** The ALT was 54.3 ± 14.4 u/l.

**Q.** And the BUN (neo^R mice)?
**A.** The BUN was 22.3 ± 0.9 mg/dL.

**Q.** And the CRE (neo^R mice)?
**A.** The CRE was 0.23 ± 0.05 mg/dL.

**Q.** And the “body weight, percentage of the body weight before the experiment” value (shortened to “body weight, percentage”) (Neo −/− mice; 47 mg/kg single i.p.)?
**A.** The value was 101 ± 1%.

**Q.** What about the survival (Neo −/− mice; 47 mg/kg single i.p.) of the same compound?
**A.** The survival was “surv (surv, animals survived the 10 day period)”.

**Q.** And the “body weight, percentage” value (Neo −/− mice; 68 mg/kg single i.p.)?
**A.** Its value is 104 ± 4%.

**Q.** What about the survival (Neo −/− mice; 68 mg/kg single i.p.) of the same compound?
**A.** Its survival is “surv (surv, animals survived the 10 day period)”.

**Q.** And the “body weight, percentage” value (Neo −/− mice; 103 mg/kg single i.p.)?
**A.** The value was 73 ± 6%.

**Q.** What about the survival (Neo −/− mice; 103 mg/kg single i.p.) of the same compound?
**A.** Its survival is 8 days.

**Q.** And the “body weight, percentage” value (Neo −/− mice; 153 mg/kg single i.p.)?
**A.** Its value is 73 ± 5%.

**Q.** What about the survival (Neo −/− mice; 153 mg/kg single i.p.) of the same compound?
**A.** The survival was 8 days.

**Q.** And the “body weight, percentage” value (Neo −/− mice; 230 mg/kg single i.p.)?
**A.** Its value is 85 ± 2%.

**Q.** And the survival (Neo −/− mice; 230 mg/kg single i.p.)?
**A.** The survival was 4 days.

**Q.** What about the “body weight, percentage” value (Neo −/− mice; 345 mg/kg single i.p.) of the same compound?
**A.** Its value is 97 ± 1%.

**Q.** What about the survival (Neo −/− mice; 345 mg/kg single i.p.) of the same compound?
**A.** Its survival is 1 days.

**Q.** What about the “body weight, percentage” value (Neo −/− mice; 480 mg/kg single i.p.) of the same compound?
**A.** Its value is 99 ± 1%.

**Q.** And the survival (Neo −/− mice; 480 mg/kg single i.p.)?
**A.** Its survival is 1 days.

**Q.** What about the “body weight, percentage” value (Neo −/− mice; 778 mg/kg single i.p.) of the same compound?
**A.** Its value is 100 ± 2%.

**Q.** And the survival (Neo −/− mice; 778 mg/kg single i.p.)?
**A.** Its survival is 1 days.

**Q.** What about the survival (neo +/+ transgenic mice; 47 mg/kg single i.p.) of the same compound?
**A.** The survival was “surv (surv, animals survived the 10 day period)”.

**Q.** And the “body weight, percentage” value (neo +/+ transgenic mice; 68 mg/kg single i.p.)?
**A.** The value was 100 ± 1%.

**Q.** What about the survival (neo +/+ transgenic mice; 68 mg/kg single i.p.) of the same compound?
**A.** Its survival is “surv (surv, animals survived the 10 day period)”.

**Q.** What about the survival (neo +/+ transgenic mice; 103 mg/kg single i.p.) of the same compound?
**A.** The survival was “surv (surv, animals survived the 10 day period)”.

**Q.** What about the “body weight, percentage” value (neo +/+ transgenic mice; 153 mg/kg single i.p.) of the same compound?
**A.** Its value is 102 ± 3%.

**Q.** What about the survival (neo +/+ transgenic mice; 153 mg/kg single i.p.) of the same compound?
**A.** Its survival is “surv (surv, animals survived the 10 day period)”.

**Q.** What about the “body weight, percentage” value (neo +/+ transgenic mice; 230 mg/kg single i.p.) of the same compound?
**A.** Its value is 100 ± 2%.

**Q.** What about the survival (neo +/+ transgenic mice; 230 mg/kg single i.p.) of the same compound?
**A.** Its survival is “surv (surv, animals survived the 10 day period)”.

**Q.** And the “body weight, percentage” value (neo +/+ transgenic mice; 345 mg/kg single i.p.)?
**A.** The value was 98 ± 4%.

**Q.** And the survival (neo +/+ transgenic mice; 345 mg/kg single i.p.)?
**A.** The survival was “surv (surv, animals survived the 10 day period)”.

**Q.** And the “body weight, percentage” value (neo +/+ transgenic mice; 480 mg/kg single i.p.)?
**A.** Its value is 100 ± 1%.

**Q.** And the survival (neo +/+ transgenic mice; 480 mg/kg single i.p.)?
**A.** The survival was “surv (surv, animals survived the 10 day period)”.

**Q.** And the “body weight, percentage” value (neo +/+ transgenic mice; 778 mg/kg single i.p.)?
**A.** The value was 101 ± 1%.

**Q.** And the survival (neo +/+ transgenic mice; 778 mg/kg single i.p.)?
**A.** The survival was “surv (surv, animals survived the 10 day period)”.

**Q.** And the “body weight, percentage” value (neo +/+ transgenic mice; 1140 mg/kg single i.p.)?
**A.** Its value is 100 ± 1%.

**Q.** And the survival (neo +/+ transgenic mice; 1140 mg/kg single i.p.)?
**A.** Its survival is 1 days.

**Q.** And the “increase of the approximate lethal dose” value (neo +/+ transgenic mice; neoR expression in transgenic animals vs wild type)?
**A.** The value was 10 fold.

**Q.** And the “time to death due to breath failure after injection” value (neo +/+ transgenic mice; neo^R transgenic animals, highest dose 1140 mg/kg)?
**A.** Its value is ≤ 10 min.
